SMILES strings stand for the structures.

A word on the IC50: it is the midpoint of a concentration-inhibition curve.

For the assay, the target named is Glycogen synthase kinase-3 beta splice variant X1 (Bos taurus, UniProt A0A059UE90). Description: Inhibition Assay: A mixture containing 100 mM MES-sodium hydroxide (pH 6.5), 1 mM magnesium acetate, 0.5 mM EGTA, 5 mM, β-mercaptoethanol, 0.02% Tween 20, 10% glycerol, 12 µg/ml P-GS1, 41.7 µM [γ-^32P] ATP (68 kBq/ml), bovine cerebral TPK1 and a compound shown in Table (a final mixture contained 1.7% DMSO deriving from a solution of a test compound prepared in the presence of 10% DMSO) was used as a reaction system. The phosphorylation was started by adding ATP, and the reaction was conducted at 25° C. for 2 hours, and then stopped by adding 21% perchloric acid on ice cooling. The reaction mixture was centrifuged at 12,000 rpm for 5 minutes and adsorbed on P81 paper (Whatmann), and then the paper was washed four times with 75 mM phosphoric acid, three times with water and once with acetone. The paper was dried, and the residual radioactivity was measured using a liquid scintillation counter.
With `Cn1c(OCC(=O)c2ccc(Br)cc2)nc(-c2ccncn2)cc1=O`, the IC50 came out at 108 nM.
Next, `Cn1c(OCC(=O)c2ccc(Br)cc2)nc(-c2ccncc2F)cc1=O`: 27 nM.
As for `Cn1c(OCC(=O)c2ccc(Br)cc2)nc(-c2ccncc2)cc1=O`, the IC50 was 167 nM.
As for `Cn1c(OCC(=O)c2ccccc2)nc(-c2ccncn2)cc1=O`, the figure is 20 nM.

The values are drawn from ChEMBL document CHEMBL3638383, “Pyrimidone derivatives” (2015).
